Test results taken from ChEMBL document CHEMBL4229379, “Synthesis and structure-activity relationship of novel bisindole amidines active against MDR Gram-positive and Gram-negative bacteria” (Eur J Med Chem, 2018).
≈ marks a conversion by molar mass, not a printed value.

How the values were obtained:
[1] = test system: Citrobacter freundii; test: Antibacterial activity against Citrobacter freundii ATCC 43864 after 18 hrs by CLSI broth microdilution method; type: functional; conditions: ATCC 43864, 18 h
[2] = test system: Staphylococcus epidermidis; test: Antibacterial activity against methicillin-resistant Staphylococcus epidermidis 12-8 after 18 hrs by CLSI broth microdilution method; type: functional; conditions: 12-8, 18 h
[3] = test system: Klebsiella pneumoniae; test: Antibacterial activity against extended-spectrum beta-lactamase harboring Klebsiella pneumoniae ATCC 700603 after 18 hrs by CLSI broth microdilution method; type: functional; conditions: Klebsiella pneumoniae, 700603, 18 h
[4] = test system: Proteus mirabilis; test: Antibacterial activity against Proteus mirabilis 12-6 after 18 hrs by CLSI broth microdilution method; type: functional; conditions: 12-6, 18 h
[5] = test system: Enterobacter cloacae; test: Antibacterial activity against Enterobacter cloacae ATCC 43560 after 18 hrs by CLSI broth microdilution method; type: functional; conditions: ATCC 43560, 18 h
[6] = test system: Enterococcus faecalis; test: Antibacterial activity against vancomycin-sensitive Enterococcus faecalis ATCC 29212 after 18 hrs by CLSI broth microdilution method; type: functional; conditions: ATCC 29212, 18 h
[7] = test system: Stenotrophomonas maltophilia; test: Antibacterial activity against Stenotrophomonas maltophilia ATCC 13636 after 18 hrs by CLSI broth microdilution method; type: functional; conditions: ATCC 13636, 18 h
[8] = test system: Staphylococcus epidermidis; test: Antibacterial activity against methicillin-sensitive Staphylococcus epidermidis 12-6 after 18 hrs by CLSI broth microdilution method; type: functional; conditions: 12-6, 18 h
[9] = test system: Staphylococcus aureus; test: Antibacterial activity against methicillin-sensitive Staphylococcus aureus 12-28 after 18 hrs by CLSI broth microdilution method; type: functional; conditions: 12-28, 18 h
[10] = test system: Pseudomonas aeruginosa; test: Antibacterial activity against Pseudomonas aeruginosa 12-16 after 18 hrs by CLSI broth microdilution method; type: functional; conditions: 12-16, 18 h
[11] = test system: Staphylococcus aureus; test: Antibacterial activity against methicillin-sensitive Staphylococcus aureus ATCC 29213 after 18 hrs by CLSI broth microdilution method; type: functional; conditions: ATCC 29213, 18 h
[12] = test system: Acinetobacter calcoaceticus; test: Antibacterial activity against Acinetobacter calcoaceticus ATCC 19606 after 18 hrs by CLSI broth microdilution method; type: functional; conditions: ATCC 19606, 18 h
[13] = test system: Escherichia coli; test: Antibacterial activity against extended-spectrum beta-lactamase deficient Escherichia coli 12-14 after 18 hrs by CLSI broth microdilution method; type: functional; conditions: 12-14, 18 h
[14] = test system: Staphylococcus aureus; test: Antibacterial activity against methicillin-resistant Staphylococcus aureus 12-33 after 18 hrs by CLSI broth microdilution method; type: functional; conditions: 12-33, 18 h
[15] = test system: Escherichia coli; test: Antibacterial activity against extended-spectrum beta-lactamase harboring Escherichia coli 12-15 after 18 hrs by CLSI broth microdilution method; type: functional; conditions: 12-15, 18 h
[16] = test system: Klebsiella aerogenes; test: Antibacterial activity against Enterobacter aerogenes ATCC 13048 after 18 hrs by CLSI broth microdilution method; type: functional; conditions: ATCC 13048, 18 h
[17] = test system: Escherichia coli; test: Antibacterial activity against extended-spectrum beta-lactamase deficient Escherichia coli 1515 after 18 hrs by CLSI broth microdilution method; type: functional; conditions: Escherichia coli, 1515, 18 h
[18] = test system: Enterococcus faecalis; test: Antibacterial activity against vancomycin-sensitive Enterococcus faecalis 12-5 after 18 hrs by CLSI broth microdilution method; type: functional; conditions: 12-5, 18 h
[19] = test system: Klebsiella pneumoniae; test: Antibacterial activity against extended-spectrum beta-lactamase harboring Klebsiella pneumoniae 12-8 after 18 hrs by CLSI broth microdilution method; type: functional; conditions: 12-8, 18 h
[20] = test system: Klebsiella pneumoniae; test: Antibacterial activity against extended-spectrum beta-lactamase deficient Klebsiella pneumoniae 7 after 18 hrs by CLSI broth microdilution method; type: functional; conditions: Klebsiella pneumoniae, 7, 18 h
[21] = test system: Enterococcus faecalis; test: Antibacterial activity against vancomycin-resistant Enterococcus faecalis ATCC 51299 after 18 hrs by CLSI broth microdilution method; type: functional; conditions: ATCC 51299, 18 h
[22] = Cytotoxicity against HEK293T cells assessed as reduction in cell viability after 48 hrs by MTS assay; type: cell-based, HEK-293T; conditions: human
[23] = test system: Proteus vulgaris; test: Antibacterial activity against Proteus vulgaris ATCC 29905 after 18 hrs by CLSI broth microdilution method; type: functional; conditions: ATCC 29905, 18 h
[24] = test system: Enterococcus faecium; test: Antibacterial activity against vancomycin-sensitive Enterococcus faecium 12-3 after 18 hrs by CLSI broth microdilution method; type: functional; conditions: 12-3, 18 h
[25] = test system: Escherichia coli; test: Antibacterial activity against extended-spectrum beta-lactamase deficient Escherichia coli ATCC 25922 after 18 hrs by CLSI broth microdilution method; type: functional; conditions: ATCC 25922, 18 h
[26] = test system: Providencia rettgeri; test: Antibacterial activity against Providencia rettgeri ATCC 31052 after 18 hrs by CLSI broth microdilution method; type: functional; conditions: ATCC 31052, 18 h
[27] = test system: Staphylococcus aureus; test: Antibacterial activity against methicillin-sensitive Staphylococcus aureus 15 after 18 hrs by CLSI broth microdilution method; type: functional; conditions: Staphylococcus aureus, 15, 18 h
[28] = test system: Serratia marcescens; test: Antibacterial activity against Serratia marcescens ATCC 21074 after 18 hrs by CLSI broth microdilution method; type: functional; conditions: ATCC 21074, 18 h
[29] = test system: Enterococcus faecalis; test: Antibacterial activity against vancomycin-resistant Enterococcus faecalis 09-9 after 18 hrs by CLSI broth microdilution method; type: functional; conditions: 09-9, 18 h
[30] = test system: Staphylococcus epidermidis; test: Antibacterial activity against methicillin-sensitive Staphylococcus epidermidis ATCC 12228 after 18 hrs by CLSI broth microdilution method; type: functional; conditions: ATCC 12228, 18 h
[31] = test system: Klebsiella pneumoniae; test: Antibacterial activity against new delhi metallo-beta-lactamase-1 harboring Klebsiella pneumoniae ATCC BAA-2146 after 18 hrs by CLSI broth microdilution method; type: functional; conditions: ATCC BAA-2146, 18 h
[32] = test system: Klebsiella pneumoniae; test: Antibacterial activity against extended-spectrum beta-lactamase deficient Klebsiella pneumoniae 12-4 after 18 hrs by CLSI broth microdilution method; type: functional; conditions: 12-4, 18 h
[33] = test system: Enterococcus faecium; test: Antibacterial activity against vancomycin-resistant Enterococcus faecium 12-1 after 18 hrs by CLSI broth microdilution method; type: functional; conditions: 12-1, 18 h
[34] = test system: Staphylococcus aureus; test: Antibacterial activity against methicillin-resistant Staphylococcus aureus ATCC 33591 after 18 hrs by CLSI broth microdilution method; type: functional; conditions: ATCC 33591, 18 h
[35] = test system: Pseudomonas aeruginosa; test: Antibacterial activity against Pseudomonas aeruginosa ATCC 27853 after 18 hrs by CLSI broth microdilution method; type: functional; conditions: ATCC 27853, 18 h
[36] = test system: Pseudomonas aeruginosa; test: Antibacterial activity against Pseudomonas aeruginosa PAO1 after 18 hrs by CLSI broth microdilution method; type: functional; conditions: PAO1, 18 h
[37] = test system: Enterococcus faecium; test: Antibacterial activity against vancomycin-resistant Enterococcus faecium ATCC 700221 after 18 hrs by CLSI broth microdilution method; type: functional; conditions: ATCC 700221, 18 h

SMILES | MIC [1] | MIC [2] | MIC [3] | MIC [4] | MIC [5] | MIC [6] | MIC [7] | MIC [8] | MIC [9] | MIC [10] | MIC [11] | MIC [12] | MIC [13] | MIC [14] | MIC [15] | MIC [16] | MIC [17] | MIC [18] | MIC [19] | MIC [20] | other results
CN(C)C(=N)c1ccc2cc(-c3ccc4ccc(-c5cc6ccc(C(=N)N(C)C)cc6[nH]5)cc4c3)[nH]c2c1 | > 128 µg/mL | 4 µg/mL (≈ 8.02 µM) | > 128 µg/mL | > 128 µg/mL | > 128 µg/mL | 128 µg/mL (≈ 257 µM) | > 128 µg/mL | 64 µg/mL (≈ 128 µM) | 4 µg/mL (≈ 8.02 µM) | > 128 µg/mL | 4 µg/mL (≈ 8.02 µM) | > 128 µg/mL | > 128 µg/mL | 8 µg/mL (≈ 16 µM) | > 128 µg/mL | > 128 µg/mL | > 128 µg/mL | 128 µg/mL (≈ 257 µM) | > 128 µg/mL | > 128 µg/mL | MIC [21]: 128 µg/mL (≈ 257 µM); CC50 at 48 h [22]: 13.6 µg/mL (≈ 27.4 µM); MIC [23]: > 128 µg/mL; MIC [24]: 32 µg/mL (≈ 64.2 µM); MIC [25]: > 128 µg/mL; MIC [26]: > 128 µg/mL; MIC [27]: 4 µg/mL (≈ 8.02 µM); MIC [28]: > 128 µg/mL; MIC [29]: 128 µg/mL (≈ 257 µM); MIC [30]: 4 µg/mL (≈ 8.02 µM); MIC [31]: > 128 µg/mL; MIC [32]: > 128 µg/mL; MIC [33]: 16 µg/mL (≈ 32.1 µM); MIC [34]: 4 µg/mL (≈ 8.02 µM); MIC [35]: > 128 µg/mL; MIC [36]: > 128 µg/mL; MIC [37]: 128 µg/mL (≈ 257 µM)
N=C(c1ccc2cc(-c3ccc(-c4cc5ccc(C(=N)N6CC=CC6)cc5[nH]4)cc3)[nH]c2c1)N1CC=CC1 | 8 µg/mL (≈ 16.1 µM) | 4 µg/mL (≈ 8.05 µM) | 32 µg/mL (≈ 64.4 µM) | 64 µg/mL (≈ 129 µM) | 8 µg/mL (≈ 16.1 µM) | 8 µg/mL (≈ 16.1 µM) | 32 µg/mL (≈ 64.4 µM) | 2 µg/mL (≈ 4.03 µM) | 4 µg/mL (≈ 8.05 µM) | > 128 µg/mL | 4 µg/mL (≈ 8.05 µM) | 32 µg/mL (≈ 64.4 µM) | 16 µg/mL (≈ 32.2 µM) | 4 µg/mL (≈ 8.05 µM) | 8 µg/mL (≈ 16.1 µM) | 8 µg/mL (≈ 16.1 µM) | 16 µg/mL (≈ 32.2 µM) | 8 µg/mL (≈ 16.1 µM) | 16 µg/mL (≈ 32.2 µM) | 8 µg/mL (≈ 16.1 µM) | MIC [21]: 8 µg/mL (≈ 16.1 µM); CC50 at 48 h [22]: 12.4 µg/mL (≈ 24.9 µM); MIC [23]: 32 µg/mL (≈ 64.4 µM); MIC [24]: 16 µg/mL (≈ 32.2 µM); MIC [25]: 8 µg/mL (≈ 16.1 µM); MIC [26]: 16 µg/mL (≈ 32.2 µM); MIC [27]: 4 µg/mL (≈ 8.05 µM); MIC [28]: > 128 µg/mL; MIC [29]: 8 µg/mL (≈ 16.1 µM); MIC [30]: 1 µg/mL (≈ 2.01 µM); MIC [31]: 8 µg/mL (≈ 16.1 µM); MIC [32]: 16 µg/mL (≈ 32.2 µM); MIC [33]: 16 µg/mL (≈ 32.2 µM); MIC [34]: 2 µg/mL (≈ 4.03 µM); MIC [35]: > 128 µg/mL; MIC [36]: > 128 µg/mL; MIC [37]: 16 µg/mL (≈ 32.2 µM)
